Source: ChEMBL document CHEMBL3885881, “DrugMatrix”

Species: Rattus norvegicus
Assay: DrugMatrix - Regimen: Daily Repeat
Assay type: toxicity, organism-based, Sprague-Dawley
Parameters: regimen Daily Repeat, gender Male, age 6-8 weeks
Settings: in vivo, po, route oral GAVAGE, […]; for ABSOLUTE BASOPHIL / ABSOLUTE EOSINOPHIL / ABSOLUTE LYMPHOCYTE / ABSOLUTE MONOCYTE / ABSOLUTE SEGMENTED NEUTROPHIL / BASOPHIL / EOSINOPHIL / ERYTHROCYTE COUNT / HEMATOCRIT / HEMOGLOBIN / LEUKOCYTE COUNT / LYMPHOCYTE / MEAN CORPUSCULAR HEMOGLOBIN / MEAN CORPUSCULAR HEMOGLOBIN CONCENTRATION / MEAN CORPUSCULAR VOLUME / MONOCYTE / NEUTROPHIL / NUCLEATED RED BLOOD CELLS / PLATELET COUNT: tissue Blood; for ALANINE AMINOTRANSFERASE / ALBUMIN / ALKALINE PHOSPHATASE / ASPARTATE AMINOTRANSFERASE / BLOOD UREA NITROGEN / CARBON DIOXIDE / CHLORIDE / CHOLESTEROL / CREATINE PHOSPHOKINASE / CREATININE / GLUCOSE / LACTATE DEHYDROGENASE / LIPASE / PHOSPHORUS / POTASSIUM / SODIUM / TOTAL BILIRUBIN / TOTAL PROTEIN / URIC ACID: tissue Plasma
[1] = 10 mg/kg, 120 h, dose level Low, time 5 day
[2] = 92 mg/kg, 72 h, dose level High, time 3 day
[3] = 92 mg/kg, 120 h, dose level High, time 5 day

c1ccc2[nH]c(-c3cscn3)nc2c1 [THIABENDAZOLE]
ABSOLUTE BASOPHIL [1]: 0 CELLS/uL
ABSOLUTE EOSINOPHIL [1]: 61 CELLS/uL
ABSOLUTE LYMPHOCYTE [1]: 15391 CELLS/uL
ABSOLUTE MONOCYTE [1]: 225.67 CELLS/uL
ABSOLUTE SEGMENTED NEUTROPHIL [1]: 1089 CELLS/uL
BASOPHIL [1]: 0%
EOSINOPHIL [1]: 0.33%
ERYTHROCYTE COUNT [1]: 6.11 x10E6/uL
HEMATOCRIT [1]: 37.8%
HEMOGLOBIN [1]: 14.63 G/DL
LEUKOCYTE COUNT [1]: 16.77 x10E3/uL
LYMPHOCYTE [1]: 92%
MEAN CORPUSCULAR HEMOGLOBIN [1]: 23.97 pg
MEAN CORPUSCULAR HEMOGLOBIN CONCENTRATION [1]: 38.7 G/DL
MEAN CORPUSCULAR VOLUME [1]: 61.9 fL
MONOCYTE [1]: 1.33%
NEUTROPHIL [1]: 6.33%
NUCLEATED RED BLOOD CELLS [1]: 0 /100WBC
PLATELET COUNT [1]: 1202.33 x10E3/uL
ALANINE AMINOTRANSFERASE [1]: 79.33 u/L
ALBUMIN [1]: 4 G/DL
ALKALINE PHOSPHATASE [1]: 420.33 u/L
ASPARTATE AMINOTRANSFERASE [1]: 82.33 u/L
BLOOD UREA NITROGEN [1]: 12.33 mg/dL
CARBON DIOXIDE [1]: 30.67 mmol/L
CHLORIDE [1]: 100.67 MEQ/L
CHOLESTEROL [1]: 66.33 mg/dL
CREATINE PHOSPHOKINASE [1]: 192 u/L
CREATININE [1]: 0.19 mg/dL
GLUCOSE [1]: 163.67 mg/dL
LACTATE DEHYDROGENASE [1]: 183 u/L
LIPASE [1]: 10.33 u/L
PHOSPHORUS [1]: 11.47 mg/dL
POTASSIUM [1]: 6.52 MEQ/L
SODIUM [1]: 143.07 MEQ/L
TOTAL BILIRUBIN [1]: 0.13 mg/dL
TOTAL PROTEIN [1]: 5.6 G/DL
URIC ACID [1]: 1.87 mg/dL
ABSOLUTE BASOPHIL [2]: 0 CELLS/uL
ABSOLUTE EOSINOPHIL [2]: 24 CELLS/uL
ABSOLUTE LYMPHOCYTE [2]: 7261 CELLS/uL
ABSOLUTE MONOCYTE [2]: 24 CELLS/uL
ABSOLUTE SEGMENTED NEUTROPHIL [2]: 591 CELLS/uL
BASOPHIL [2]: 0%
EOSINOPHIL [2]: 0.33%
ERYTHROCYTE COUNT [2]: 5.57 x10E6/uL
HEMATOCRIT [2]: 35.07%
HEMOGLOBIN [2]: 13.8 G/DL
LEUKOCYTE COUNT [2]: 7.9 x10E3/uL
LYMPHOCYTE [2]: 91.33%
MEAN CORPUSCULAR HEMOGLOBIN [2]: 24.83 pg
MEAN CORPUSCULAR HEMOGLOBIN CONCENTRATION [2]: 39.4 G/DL
MEAN CORPUSCULAR VOLUME [2]: 63.07 fL
MONOCYTE [2]: 0.33%
NEUTROPHIL [2]: 8%
NUCLEATED RED BLOOD CELLS [2]: 0.33 /100WBC
PLATELET COUNT [2]: 1094.67 x10E3/uL
ALANINE AMINOTRANSFERASE [2]: 74.33 u/L
ALBUMIN [2]: 4.13 G/DL
ALKALINE PHOSPHATASE [2]: 448.67 u/L
ASPARTATE AMINOTRANSFERASE [2]: 82 u/L
BLOOD UREA NITROGEN [2]: 11.67 mg/dL
CARBON DIOXIDE [2]: 25 mmol/L
CHLORIDE [2]: 95.67 MEQ/L
CHOLESTEROL [2]: 85 mg/dL
CREATINE PHOSPHOKINASE [2]: 153.33 u/L
CREATININE [2]: 0.32 mg/dL
GLUCOSE [2]: 135.67 mg/dL
LACTATE DEHYDROGENASE [2]: 102 u/L
LIPASE [2]: 9.33 u/L
PHOSPHORUS [2]: 9.53 mg/dL
POTASSIUM [2]: 5.43 MEQ/L
SODIUM [2]: 139.33 MEQ/L
TOTAL BILIRUBIN [2]: 0.13 mg/dL
TOTAL PROTEIN [2]: 5.73 G/DL
URIC ACID [2]: 0.6 mg/dL
ABSOLUTE BASOPHIL [3]: 0 CELLS/uL
ABSOLUTE EOSINOPHIL [3]: 47 CELLS/uL
ABSOLUTE LYMPHOCYTE [3]: 13905 CELLS/uL
ABSOLUTE MONOCYTE [3]: 244.33 CELLS/uL
ABSOLUTE SEGMENTED NEUTROPHIL [3]: 703.67 CELLS/uL
BASOPHIL [3]: 0%
EOSINOPHIL [3]: 0.33%
ERYTHROCYTE COUNT [3]: 6.23 x10E6/uL
HEMATOCRIT [3]: 39.1%
HEMOGLOBIN [3]: 15 G/DL
LEUKOCYTE COUNT [3]: 14.9 x10E3/uL
LYMPHOCYTE [3]: 93.33%
MEAN CORPUSCULAR HEMOGLOBIN [3]: 24.1 pg
MEAN CORPUSCULAR HEMOGLOBIN CONCENTRATION [3]: 38.37 G/DL
MEAN CORPUSCULAR VOLUME [3]: 62.7 fL
MONOCYTE [3]: 1.67%
NEUTROPHIL [3]: 4.67%
NUCLEATED RED BLOOD CELLS [3]: 0 /100WBC
PLATELET COUNT [3]: 1269.33 x10E3/uL
ALANINE AMINOTRANSFERASE [3]: 73.33 u/L
ALBUMIN [3]: 4.13 G/DL
ALKALINE PHOSPHATASE [3]: 474.33 u/L
ASPARTATE AMINOTRANSFERASE [3]: 82 u/L
BLOOD UREA NITROGEN [3]: 13.33 mg/dL
CARBON DIOXIDE [3]: 25.67 mmol/L
CHLORIDE [3]: 101 MEQ/L
CHOLESTEROL [3]: 64.33 mg/dL
CREATINE PHOSPHOKINASE [3]: 344.33 u/L
CREATININE [3]: 0.18 mg/dL
GLUCOSE [3]: 187 mg/dL
LACTATE DEHYDROGENASE [3]: 278 u/L
LIPASE [3]: 10.33 u/L
PHOSPHORUS [3]: 12.03 mg/dL
POTASSIUM [3]: 6.59 MEQ/L
SODIUM [3]: 141.23 MEQ/L
TOTAL BILIRUBIN [3]: 0.2 mg/dL
TOTAL PROTEIN [3]: 5.7 G/DL
URIC ACID [3]: 2.43 mg/dL
